Consider seven compounds from ChEMBL document CHEMBL6109040, “Tyrosine kinase 2 inhibitors: Synthesis and applications in the treatment of autoimmune diseases” (Eur J Med Chem, 2025).

A value given as a limit tells only on which side of the number the result lay.

For orientation: IC50 means the concentration needed to halve the response being measured. A higher IC50 goes with lower potency. As usually defined, the Cmax is the highest concentration seen after dosing. For orientation: AUC means concentration integrated over time. A low value points to low exposure. By Kd is commonly meant the concentration at which binding is half-saturated. In general, Ki refers to a measure of affinity in units of concentration, obtained from inhibition or displacement.

A short description of data set [1]: Inhibition of IL-12 induced IFNgamma production in human NK92 cells. It counts as functional, cell-based, NK-92.
Data set [2] is described as follows: Cmax in BALB/c mouse at 5 mg/kg, po by LC-MS/MS analysis. It counts as ADME, organism-based. As to conditions: in vivo.
The nature of data set [3]: AUC in BALB/c mouse at 5 mg/kg, po by LC-MS/MS analysis. It counts as ADME, organism-based. As to conditions: in vivo.
Data set [4] can be described thus: Inhibition of IFNalpha-induced STAT5 phosphorylation in human PBMC cells. It counts as cell-based.
Data set [5] addresses T1, Non-receptor tyrosine-protein kinase TYK2 (Homo sapiens, UniProt P29597). The data set can be described thus: Binding affinity to recombinant human TYK2 JH2 (564 to 876 residues) pseudokinase domain assessed as dissociation constant by fluorescence polarization assay. (In fluorescence polarisation assays a small probe gives low polarisation when free and higher when bound to something large.)

Data set [6] addresses T1, Non-receptor tyrosine-protein kinase TYK2. The data set can be described thus: Binding affinity to TYK2 JH2 (556 to 888 residues) pseudokinase domain (unknown origin) assessed as dissociation constant by KINOMEscan assay.
Data set [7] deals with Tyrosine-protein kinase JAK2 (Homo sapiens, UniProt O60674). The experiment in a line: Binding affinity to JAK2 […] pseudokinase domain (unknown origin) assessed as dissociation constant by TR-FRET assay. For orientation: In TR-FRET formats the signal depends on donor and acceptor labels being close together.
Chain of Tyrosine-protein kinase JAK2 (O60674 whole entry, the tested form may be a part): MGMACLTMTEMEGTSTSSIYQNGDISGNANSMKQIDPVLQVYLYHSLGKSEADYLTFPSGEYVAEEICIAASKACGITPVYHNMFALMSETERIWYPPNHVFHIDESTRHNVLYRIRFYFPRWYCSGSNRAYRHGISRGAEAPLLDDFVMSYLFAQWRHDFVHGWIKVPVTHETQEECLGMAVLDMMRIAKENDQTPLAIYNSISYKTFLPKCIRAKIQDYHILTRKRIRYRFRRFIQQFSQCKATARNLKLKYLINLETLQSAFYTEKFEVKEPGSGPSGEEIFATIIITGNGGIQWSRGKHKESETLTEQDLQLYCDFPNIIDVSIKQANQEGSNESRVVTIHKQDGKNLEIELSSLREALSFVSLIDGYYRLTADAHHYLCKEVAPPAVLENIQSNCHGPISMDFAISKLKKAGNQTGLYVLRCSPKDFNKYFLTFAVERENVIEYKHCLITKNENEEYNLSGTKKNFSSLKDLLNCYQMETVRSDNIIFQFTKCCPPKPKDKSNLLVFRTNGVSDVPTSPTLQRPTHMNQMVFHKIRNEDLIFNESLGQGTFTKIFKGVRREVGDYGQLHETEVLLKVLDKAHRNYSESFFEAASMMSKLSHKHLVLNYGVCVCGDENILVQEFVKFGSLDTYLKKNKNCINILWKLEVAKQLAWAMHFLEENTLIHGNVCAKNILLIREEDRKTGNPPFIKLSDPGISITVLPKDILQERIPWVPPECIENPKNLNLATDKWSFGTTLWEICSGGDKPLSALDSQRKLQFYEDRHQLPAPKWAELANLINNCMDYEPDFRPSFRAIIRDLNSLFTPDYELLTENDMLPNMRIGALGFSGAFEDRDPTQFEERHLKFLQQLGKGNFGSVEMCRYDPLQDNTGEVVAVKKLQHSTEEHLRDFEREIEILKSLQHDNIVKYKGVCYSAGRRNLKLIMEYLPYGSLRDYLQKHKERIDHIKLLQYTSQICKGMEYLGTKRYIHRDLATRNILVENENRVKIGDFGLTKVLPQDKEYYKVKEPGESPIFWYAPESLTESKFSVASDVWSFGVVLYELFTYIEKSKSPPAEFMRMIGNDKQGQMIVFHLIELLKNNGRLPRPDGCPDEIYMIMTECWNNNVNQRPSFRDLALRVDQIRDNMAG
Data set [8] has as its target T1, Non-receptor tyrosine-protein kinase TYK2. The experiment in a line: Inhibition of TYK2 JH2 pseudokinase domain (unknown origin) by TR-FRET assay.
In data set [9] the target is T2, Tyrosine-protein kinase JAK1 (Homo sapiens, UniProt P23458). The experiment in a line: Binding affinity to recombinant human JAK1 JH2 (553 to 856 residues) pseudokinase domain assessed as inhibition constant by fluorescence polarization assay.
T2 sequence (P23458 whole entry, the tested form may be a part): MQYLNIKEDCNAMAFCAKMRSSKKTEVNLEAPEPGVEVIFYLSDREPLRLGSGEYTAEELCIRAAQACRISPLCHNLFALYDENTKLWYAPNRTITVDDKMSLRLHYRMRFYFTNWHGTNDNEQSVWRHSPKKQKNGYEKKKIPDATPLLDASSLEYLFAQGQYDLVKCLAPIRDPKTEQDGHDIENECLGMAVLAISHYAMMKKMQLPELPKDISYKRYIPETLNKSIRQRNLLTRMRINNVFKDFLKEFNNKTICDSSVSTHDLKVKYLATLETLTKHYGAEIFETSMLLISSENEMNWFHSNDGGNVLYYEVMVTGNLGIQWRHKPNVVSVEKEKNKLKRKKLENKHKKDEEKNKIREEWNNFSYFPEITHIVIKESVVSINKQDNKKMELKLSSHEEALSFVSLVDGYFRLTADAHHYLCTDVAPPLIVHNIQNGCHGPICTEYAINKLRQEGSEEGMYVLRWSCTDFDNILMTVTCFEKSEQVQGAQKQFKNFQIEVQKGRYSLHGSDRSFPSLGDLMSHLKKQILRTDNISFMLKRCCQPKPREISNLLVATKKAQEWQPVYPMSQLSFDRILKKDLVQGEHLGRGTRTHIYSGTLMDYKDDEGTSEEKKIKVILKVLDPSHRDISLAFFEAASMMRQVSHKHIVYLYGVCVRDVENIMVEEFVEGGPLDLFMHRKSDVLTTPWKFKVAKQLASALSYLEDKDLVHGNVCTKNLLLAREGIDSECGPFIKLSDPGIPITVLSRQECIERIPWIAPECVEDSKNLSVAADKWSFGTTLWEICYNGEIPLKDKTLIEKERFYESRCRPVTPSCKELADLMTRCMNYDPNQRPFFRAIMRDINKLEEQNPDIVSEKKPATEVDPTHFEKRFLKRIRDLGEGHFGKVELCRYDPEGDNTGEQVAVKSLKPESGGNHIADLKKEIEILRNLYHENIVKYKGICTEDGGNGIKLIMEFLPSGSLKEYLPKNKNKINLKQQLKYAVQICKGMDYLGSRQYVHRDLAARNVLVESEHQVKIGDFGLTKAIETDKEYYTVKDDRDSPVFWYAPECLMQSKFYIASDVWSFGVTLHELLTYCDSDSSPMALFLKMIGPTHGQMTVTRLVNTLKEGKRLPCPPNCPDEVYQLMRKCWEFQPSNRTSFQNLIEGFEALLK
Data set [10] addresses T2, Tyrosine-protein kinase JAK1. The experiment in a line: Inhibition of JAK1 (unknown origin).

T1 sequence (P29597 whole entry, the tested form may be a part): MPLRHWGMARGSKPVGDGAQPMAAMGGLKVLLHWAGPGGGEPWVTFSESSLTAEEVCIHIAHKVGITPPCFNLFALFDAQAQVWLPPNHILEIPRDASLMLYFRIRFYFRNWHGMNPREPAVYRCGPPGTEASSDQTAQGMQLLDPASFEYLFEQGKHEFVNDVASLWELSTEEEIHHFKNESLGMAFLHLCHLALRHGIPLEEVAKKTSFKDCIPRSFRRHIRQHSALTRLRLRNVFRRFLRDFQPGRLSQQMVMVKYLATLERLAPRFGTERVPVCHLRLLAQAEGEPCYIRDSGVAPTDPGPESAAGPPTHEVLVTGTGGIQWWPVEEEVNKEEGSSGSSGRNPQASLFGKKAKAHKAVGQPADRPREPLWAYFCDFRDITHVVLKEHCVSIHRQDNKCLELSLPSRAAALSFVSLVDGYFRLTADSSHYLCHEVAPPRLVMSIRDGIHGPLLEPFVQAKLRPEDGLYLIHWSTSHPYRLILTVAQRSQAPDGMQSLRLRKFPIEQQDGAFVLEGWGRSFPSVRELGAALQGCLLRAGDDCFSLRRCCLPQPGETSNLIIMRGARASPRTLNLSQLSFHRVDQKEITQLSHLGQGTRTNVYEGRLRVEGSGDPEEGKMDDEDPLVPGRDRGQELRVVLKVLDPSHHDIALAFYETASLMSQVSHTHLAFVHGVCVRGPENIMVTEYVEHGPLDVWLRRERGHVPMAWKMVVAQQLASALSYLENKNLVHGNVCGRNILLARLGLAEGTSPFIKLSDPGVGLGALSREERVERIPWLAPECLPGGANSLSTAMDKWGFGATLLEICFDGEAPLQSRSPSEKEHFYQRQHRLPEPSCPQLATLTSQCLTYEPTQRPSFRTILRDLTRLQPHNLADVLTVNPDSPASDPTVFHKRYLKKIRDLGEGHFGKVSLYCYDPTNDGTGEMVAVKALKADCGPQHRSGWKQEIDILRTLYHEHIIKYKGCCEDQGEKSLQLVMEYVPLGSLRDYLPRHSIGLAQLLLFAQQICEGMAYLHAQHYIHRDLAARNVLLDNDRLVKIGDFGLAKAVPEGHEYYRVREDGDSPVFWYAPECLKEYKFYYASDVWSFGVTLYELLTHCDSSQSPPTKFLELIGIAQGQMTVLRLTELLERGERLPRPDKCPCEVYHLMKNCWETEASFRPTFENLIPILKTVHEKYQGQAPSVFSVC

Turning to `NC(=O)c1nnc(-c2c(F)cccc2F)cc1Nc1ccc(N2CCOCC2)cn1`, half-maximal inhibition in [1] (IC50) required 80 nM.
On to `[2H]C([2H])([2H])N1Cc2nc(NC(=O)C3CC3)cc(Nc3cccc(-c4ncn(C)n4)c3OC)c2C1=O`, for which, in [2], the Cmax is 1.16 µg/mL. Also, the AUC in data set [3] amounted to 3.65 µg·h/mL.
Regarding `CNc1cc2nn3c(cnc13)C(=O)N[C@H](C)COCc1ccc(OC)c(c1)N2`, the IC50 in data set [4] worked out at 1.7 nM. The Kd turned out to be 0.023 nM in [5] and 0.022 nM in [6].
For `CNC(=O)c1cnc2cc1Nc1cc(cc(-c3ccn(C)n3)c1OC)CCOCc1cccc(n1)N2`, the Kd in data set [7] was > 10000 nM. In data set [8], the IC50 was < 1 nM.
Take `CO[C@@]1(c2cc(C)cc(-n3cc(C4CC4)c4cnc(NC(C)=O)cc43)n2)CCOC1`: the Ki in [9] was > 10000 nM.
For `CC(=O)Nc1cc(Nc2cccc(S(C)(=O)=O)n2)c(-c2ccccn2)cn1`, 0.243 nM corresponded to half-maximal inhibition in data set [1] (IC50).
`CNC(=O)c1nnc(NC(=O)N2CCC2)cc1Nc1cccc(-c2ncn(C)n2)c1OC` displayed an IC50 in data set [10] of 5900 nM.
